What is called pKi is the negative decadic logarithm of the Ki, by convention in mol/L. Broadly, the pIC50 is −log10 of the IC50, conventionally taken in molar units.

pIC50, pKi: −log10 of the molar value. Where two headings read alike, the source gives them in different places.

Assay [1] concerns the target human full-length autophosphorylated recombinant HPK1 (Homo sapiens (Human), UniProt Q92918). Nature of the assay: HPK1 biochemical enzyme assay (chelation-enhanced fluorescence, CHEF). The following applies: 0.5 nM HPK1, 45 μM ATP, Morrison fit. As for the experimental part:
HPK1 Biochemical Enzyme Assay
HPK1 enzyme inhibition was measured by using the fluorescence-based chelation-enhanced fluorescence (CHEF) method (1), and by using a proprietary fluorescent peptide substrate, in which a cysteine residue is alkylated with a sulfonamido-oxine-based derivative to afford an amino acid termed C-Sox (CSx). […] Initial reaction velocities were determined by following the peptide fluorescence (λex=360 nm, λem=500 nm) at 30° C. for 15 min in a Tecan M1000 plate reader (Tecan Group Ltd., Mannedorf, Zurich, Switzerland).
Production of Autophosphorylated Full-Length Recombinant HPK1
The DNA sequence encoding full-length human HPK1 (Genbank NM_001042600.2) was synthesized at GenScript and contained a limited number of silent base changes to eliminate certain restriction endonuclease enzyme recognition sites, and fused to a DNA sequence encoding a Tobacco Etch Virus (TEV)-cleavable N-terminal polyhistidine purification tag. A recombinant baculovirus was prepared by using the Bac-to-Bac method (InVitrogen) and was used to infect 9 L of Sf21 insect cells. All purification steps were carried out at 4° C. Cells containing recombinant HPK1 were lysed in 50 mM HEPES-NaOH, pH 7.5, 250 mM NaCl, 1 mM tris(2-carboxyethyl)phosphine (TCEP), 10 μM leupeptin (Sigma), 10 μM E-64 (Sigma), and one ‘EDTA-free’ protease inhibitor tablet (Roche) per 75 mL buffer, centrifuged at 15,000×g for 1 h and the supernatant passed over 5 mL of ProBond IMAC resin (InVitrogen). After washing, HPK1 was eluted with 12.5 mL of 50 mM HEPES-NaOH, pH 7.5, 400 mM NaCl, 250 mM imidazole-HCl pH 7.5, 1 mM TCEP, 2 μM leupeptin, and 2 μM E-64. The eluted HPK1 was dialyzed overnight against 0.8 L of 50 mM HEPES-NaOH, pH 7.5, 400 mM NaCl, 20 mM imidazole-HCl pH 7.5, 1 mM TCEP, 2 μM leupeptin, 2 μM E-64, 2 mM ATP-NaOH pH 7.3, 5 mM MgCl2 and 1 mg TEV (this step simultaneously allows for reduction of the imidazole concentration in preparation for the subsequent reverse IMAC chromatography step, removal of the polyhistidine purification tag by TEV protease, and autophosphorylation of HPK1 in the presence of MgATP). The de-tagged and autophosphorylated HPK1 was adjusted to 40 mM imidazole-HCl, pH 7.5, and passed through a 10 mL column of ProBond resin similarly equilibrated. […] The peak fractions containing HPK1 were pooled and concentrated to approximately 2.5 mL by using a centrifugal concentrator (Millipore). The concentrated HPK1 was adjusted to 20% (v/v) glycerol by the addition of 50% (v/v) glycerol, resulting in a final formulation of 25 mM HEPES-NaOH pH 7.5, 250 mM NaCl, 0.25 mM TCEP and 20% (v/v) glycerol. […] Aliquots of the enzyme were flash frozen in liquid nitrogen and stored at −80° C. The final product contains a glycine-serine extension at the N-terminus of the full-length protein, as a result of the cloning strategy.

Assay [2] has as its system Phospho-SLP-76 (Ser376) in Jurkat cells. Briefly: Phospho-SLP-76 (Ser376) HTRF assay in anti-CD3 stimulated Jurkat cells. The settings on record: 30 min pre-treatment, anti-CD3 stimulation 15 min, read-out: pSLP76 IC50. The format is cell-based. As for the experimental part: Cell Based Assays Phospho-SLP-76 (Ser376) Homogeneous Time Resolved Fluorescence (HTRF) Assay
Jurkat cells were seeded at 90,000 cells/well in 90 uL of RPMI1640 growth medium containing 10% FBS and incubated at 37° C. with 5% CO2 overnight. The following day, compounds were serially diluted from a 10 mM top dose for an 11-point 3-fold dilution curve in DMSO. Compounds were intermediately diluted 1:100 into growth media prior to diluting 1:10 on cells for final concentration 10 μM to 0.1 nM in 0.1% DMSO. After 30 min pre-treatment with compounds, the cells were stimulated using 200 μg/mL of F(ab)2 complexed anti-CD3 (clone UCTH1) for 15 min at 37° C. with 5% CO2. Stimulation was stopped with ice cold PBS and cells were harvested by centrifugation before lysis in Cisbio lysis buffer (Cisbio, Bedford, Mass.). Lysates were transferred to white, low-volume plates containing anti-phospho-SLP-76-Cryptate plus anti-phospho-SLP-76-d2 HTRF antibodies and incubated overnight at room temperature protected from light according to the manufacturer's protocol (Cisbio, Bedford, Mass.). HTRF was measured on a Perkin Elmer Envision and IC50 values were calculated by concentration-response curve fitting utilizing four-parameter nonlinear regression analyses.
For orientation: In TR-FRET formats the signal depends on donor and acceptor labels being close together.

human full-length autophosphorylated recombinant HPK1, sequence (Q92918 other isoform, or with tags, fused parts or gaps): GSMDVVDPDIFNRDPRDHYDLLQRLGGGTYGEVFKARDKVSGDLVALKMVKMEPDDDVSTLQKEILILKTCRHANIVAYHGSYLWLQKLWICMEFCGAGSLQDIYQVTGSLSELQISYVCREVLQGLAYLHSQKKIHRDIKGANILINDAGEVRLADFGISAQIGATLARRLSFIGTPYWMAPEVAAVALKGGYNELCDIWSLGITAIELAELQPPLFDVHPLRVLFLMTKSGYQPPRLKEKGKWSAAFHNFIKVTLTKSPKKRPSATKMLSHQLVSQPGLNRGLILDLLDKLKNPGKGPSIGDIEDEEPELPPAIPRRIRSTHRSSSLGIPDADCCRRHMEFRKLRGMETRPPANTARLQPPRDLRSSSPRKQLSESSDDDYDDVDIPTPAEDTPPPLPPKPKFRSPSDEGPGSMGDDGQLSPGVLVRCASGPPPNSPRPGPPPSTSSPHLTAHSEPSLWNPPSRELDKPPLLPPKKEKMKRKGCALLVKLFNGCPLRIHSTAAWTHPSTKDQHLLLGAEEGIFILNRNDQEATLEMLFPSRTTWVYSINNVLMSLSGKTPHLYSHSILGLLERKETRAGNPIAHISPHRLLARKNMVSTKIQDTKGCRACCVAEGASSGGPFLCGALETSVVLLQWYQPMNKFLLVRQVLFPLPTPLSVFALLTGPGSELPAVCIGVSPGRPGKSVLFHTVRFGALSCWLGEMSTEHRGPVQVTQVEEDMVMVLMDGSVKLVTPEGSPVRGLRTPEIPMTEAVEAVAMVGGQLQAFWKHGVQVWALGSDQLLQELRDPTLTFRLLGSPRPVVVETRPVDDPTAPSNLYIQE

With `CC[C@H]1CCc2nnc(-c3cccc(N4Cc5c(cc(N(C)C)nc5CNC)C4=O)n3)n21` [Example 206, 6-(dimethyl-amino)-2-{6-[(5S)-5-ethyl-6,7-dihydro-5H-pyrrolo[2,1-c] [1,2,4]triazol-3-yl]pyridin-2-yl}-4-[(methyl-amino)methyl]-2,3-dihydro-1H-pyrrolo[3,4-c] pyridin-1-one], the negative-log Ki (pKi) in assay [1] is 9.92. In addition, the pIC50 in assay [2] (Homo sapiens, Jurkat) was 7.11.

In the case of `CCn1c(C)nnc1-c1cccc(N2Cc3c(cc(N4CCC[C@H]4C)nc3[C@@H](C)NC)C2=O)n1` (single isomer, unassigned) [Example 107], in assay [1], the negative-log Ki (pKi) was 8.99. For the same compound, the pIC50 in assay [2] (Homo sapiens, Jurkat) was 6.85.

In the case of `COC[C@@H](N)c1nc(C2(C)CC2)cc2c1CN(c1cccc(-c3nnc4n3[C@@H](C)CC4)n1)C2=O` [Example 6a, 4-[(1)-1-amino-2-methoxyethyl]-6-(1-methylcyclopropyl)-2-{6-[(5S)-5-methyl-6,7-dihydro-5H-pyrrolo[2,1-c][1,2,4]triazol-3-yl]pyridin-2-yl}-2,3-dihydro-1H-pyrrolo[3,4-c]pyridin-1-one], the pIC50 in assay [2] is 7.16.

Regarding `CNCc1nc(N(C)C)cc2c1CN(c1cccc(-c3nnc4n3[C@@H](C)CC4)n1)C2=O` [Example 208, 6-(dimethyl-amino)-4-[(methylamino)methyl]-2-{6-[(5S)-5-methyl-6,7-dihydro-5H-pyrrolo[2,1-c] [1,2,4]triazol-3-yl]pyridin-2-yl}-2,3-dihydro-1H-pyrrolo[3,4-c] pyridin-1-one], the negative-log Ki (pKi) in assay [1] was 9.22. Also, in assay [2] (Homo sapiens, Jurkat), the pIC50 was 7.07.

As for `CCn1cnnc1-c1cccc(N2Cc3c(cc(N4CCC[C@H]4C)nc3[C@@H](C)N)C2=O)n1` (single isomer, unassigned) [Example 151], the pKi in assay [1] is 9.92. Also, the pIC50 in assay [2] (Homo sapiens, Jurkat) is 7.48.

Consider `CCCn1cnnc1-c1cccc(N2Cc3c(cc(N(C)C)nc3[C@H](C)N)C2=O)n1` [Example 137, 4-[(1S)-1-aminoethyl]-6-(dimethyl-amino)-2-[6-(4-propyl-4H-1,2,4-triazol-3-yl)pyridin-2-yl]-2,3-dihydro-1H-pyrrolo[3,4-c]pyridin-1-one], for which, in assay [2] (Homo sapiens, Jurkat), the pIC50 is 6.72.

As for `CC[C@@H]1CCc2nnc(-c3cccc(N4Cc5c(cc(N6CCC[C@H]6C)nc5[C@@H](N)CC)C4=O)n3)n21` (single isomer, unassigned) [Example 16], the negative logarithm of the Ki (pKi) in assay [1] was 10.03. Moreover, in assay [2] (Homo sapiens, Jurkat), the pIC50 is 6.31.

For the compound `CC[C@@H](N)c1nc(C2(C)CC2)cc2c1CN(c1cccc(-c3nncn3CC)n1)C2=O` (single isomer, unassigned) [Example 119, 4-[(1ξ)-1-aminopropyl]-2-[6-(4-ethyl-4H-1,2,4-triazol-3-yl)pyridin-2-yl]-6-(1-methylcyclo-propyl)-2,3-dihydro-1H-pyrrolo[3,4-c]pyridin-1-one], in assay [1], the negative-log Ki (pKi) was 9.05. For the same compound, the pIC50 in assay [2] (Homo sapiens, Jurkat) was 6.78.

`CNCc1nc(N(C)C(C)C)cc2c1CN(c1cccc(-c3nnc4n3[C@@H](CF)CC4)n1)C2=O` [Example 205, 2-{6-[(5R)-5-(fluoromethyl)-6,7-dihydro-5H-pyrrolo[2,1-c][1,2,4]triazol-3-yl]pyridin-2-yl}-4-[(methyl-amino)methyl]-6-[methyl (propan-2-yl)amino]-2,3-dihydro-1H-pyrrolo[3,4-c] pyridin-1-one]: the negative logarithm of the Ki (pKi) in assay [1] is over 10.30. The pIC50 in assay [2] (Homo sapiens, Jurkat) was 7.28.

In the case of `C[C@H](N)c1nc(N2CCC[C@H]2C)cc2c1CN(c1cccc(-c3nnc4n3[C@@H](C)CC4)n1)C2=O` (single isomer, unassigned) [Example 26], the negative-log Ki (pKi) in assay [1] was 9.14. For the same compound, in assay [2] (Homo sapiens, Jurkat), the pIC50 was 6.88.

For the compound `CC[C@H]1CCc2nnc(-c3cccc(N4Cc5c(cc(N6CCC[C@H]6C)nc5[C@H](N)CC)C4=O)n3)n21` (single isomer, unassigned) [Example 14], in assay [1], the pKi was 9.03. Besides, the pIC50 in assay [2] (Homo sapiens, Jurkat) is 6.47.

`CCn1cnnc1-c1cccc(N2Cc3c(cc(C4(C)CC4)nc3[C@H](C)N)C2=O)n1` [Example 116, 4-[(1S)-1-aminoethyl]-2-[6-(4-ethyl-4H-1,2,4-triazol-3-yl)pyridin-2-yl]-6-(1-methylcyclo-propyl)-2,3-dihydro-1H-pyrrolo[3,4-c]pyridin-1-one]: the pKi in assay [1] is 9.19. Further, the pIC50 in assay [2] (Homo sapiens, Jurkat) is 6.67.

Take `CCCn1c(C)nnc1-c1cccc(N2Cc3c(cc(N4CCC[C@H]4C)nc3C(C)(C)N)C2=O)n1` [Example 133, 4-(2-aminopropan-2-yl)-2-[6-(5-methyl-4-propyl-4H-1,2,4-triazol-3-yl)pyridin-2-yl]-6-[(2R)-2-methylpyrroli-din-1-yl]-2,3-dihydro-1H-pyrrolo[3,4-c]pyridin-1-one]: the pKi in assay [1] was 9.92. Further, the pIC50 in assay [2] (Homo sapiens, Jurkat) is 7.02.

With `CC[C@@H](N)c1nc(N(C)C(C)C)cc2c1CN(c1cccc(-c3nnc4n3[C@@H](C)CC4)n1)C2=O` [Example 5], the pIC50 in assay [2] (Homo sapiens, Jurkat) was 7.51.

`CC(C)N(C)c1cc2c(c([C@@H](C)N)n1)CN(c1cccc(-c3nnc4n3[C@@H](C)CC4)n1)C2=O` [Example 21, 4-[(1R)-1-aminoethyl]-2-{6-[(5S)-5-methyl-6,7-dihydro-5H-pyrrolo[2,1-c][1,2,4]triazol-3-yl]pyridin-2-yl}-6-[methyl(propan-2-yl)amino]-2,3-dihydro-1H-pyrrolo[3,4-c]pyridin-1-one]: the pIC50 in assay [2] (Homo sapiens, Jurkat) is 7.34.

Consider `CCCn1cnnc1-c1cccc(N2Cc3c(cc(N(C)C)nc3[C@@H](C)N)C2=O)n1` [Example 138, 4-[(1R)-1-aminoethyl]-6-(dimethyl-amino)-2-[6-(4-propyl-4H-1,2,4-triazol-3-yl)pyridin-2-yl]-2,3-dihydro-1H-pyrrolo[3,4-c]pyridin-1-one], for which the pIC50 in assay [2] (Homo sapiens, Jurkat) was 6.48.

As for `CC[C@@H](N)c1nc(N(C)C)cc2c1CN(c1cccc(-c3nncn3CC)n1)C2=O` (stereo in doubt) [Example 146, 4-[(1ξ)-1-aminopropyl]-6-(dimethyl-amino)-2-[6-(4-ethyl-4H-1,2,4-triazol-3-yl)pyridin-2-yl]-2,3-dihydro-1H-pyrrolo[3,4-c]pyridin-1-one], the pKi in assay [1] was 8.50.

For `COC[C@@H](N)c1nc(C2(C)CC2)cc2c1CN(c1cccc(-c3nnc4n3[C@@H](C)CC4)n1)C2=O` [Example 6b, 4-[(1)-1-amino-2-methoxyethyl]-6-(1-methylcyclopropyl)-2-{6-[(5S)-5-methyl-6,7-dihydro-5H-pyrrolo[2,1-c][1,2,4]triazol-3-yl]pyridin-2-yl}-2,3-dihydro-1H-pyrrolo[3,4-c]pyridin-1-one], in assay [2], the pIC50 was 6.19.

For the compound `C[C@@H](N)c1nc(C2(C)CC2)cc2c1CN(c1cccc(-c3nncn3C3CCC3)n1)C2=O` (stereo in doubt) [Example 103, 4-[(1ξ)-1-aminoethyl]-2-[6-(4-cyclobutyl-4H-1,2,4-triazol-3-yl)pyridin-2-yl]-6-(1-methylcyclo-propyl)-2,3-dihydro-1H-pyrrolo[3,4-c]pyridin-1-one], in assay [1], the pKi is 8.86.
